Values quoted from earlier work, collected in patent US20230346889A9, “TREATMENT OF ACUTE HEART FAILURE” (AnaCardio R&D AB, priority 2019, published 2023).
Non-standard residues stand in square brackets, D forms with d. Residues, ends and D or L forms follow the SMILES beside them. dTrp(2-Me) = Cc1[nH]c2ccccc2c1C[C@@H](N)C(=O)O; d2Nal = N[C@H](Cc1ccc2ccccc2c1)C(=O)O

What was measured:
[1] = tested on: patients with heart failure; conditions: cited from earlier work; for association with mortality: observational ADHERE Registry
[2] = tested on: dogs with acute myocardial infarction; conditions: US2004014671A1; cited from earlier work

| Structure (SMILES) | improvement of CO [2] | association with mortality [1] | also measured |
| --- | --- | --- | --- |
| C[C@@H]1CC(=O)NN=C1c1ccc(NN=C(C#N)C#N)cc1 [Levosimendan] |  |  | hypotension and arrhythmias vs. placebo ([1]; REVIVE I and II): increased hypotension and arrhythmias vs. placebo; effect on CO and blood pressure ([1]; human, in vivo): increases CO but also causes hypotension |
| C[C@H](NC(=O)[C@@H](Cc1ccc2ccccc2c1)NC(=O)[C@@H](C)N)C(=O)N[C@@H](Cc1c[nH]c2ccccc12)C(=O)N[C@H](Cc1ccccc1)C(=O)N[C@@H](CCCCN)C(N)=O [Pralmorelin] (H-[dA][d2Nal]AW[dF]K-NH2) | improved |  |  |
| CC(CCc1ccc(O)cc1)NCCc1ccc(O)c(O)c1 (stereo not shown) [dobutamine] |  | independently associated with increased mortality |  |
| Cc1[nH]c2ccccc2c1C[C@@H](NC(=O)[C@@H](N)Cc1cnc[nH]1)C(=O)N[C@@H](C)C(=O)N[C@@H](Cc1c[nH]c2ccccc12)C(=O)N[C@H](Cc1ccccc1)C(=O)N[C@@H](CCCCN)C(N)=O [hexarelin] (H-H[dTrp(2-Me)]AW[dF]K-NH2) | not |  |  |
| Cc1[nH]c(=O)c(C#N)cc1-c1ccncc1 [milrinone] |  | independently associated with increased mortality | adverse outcomes vs. placebo ([1]; randomized OPTIME CHF): caused significantly more hypotension and atrial arrhythmias and non-significantly more deaths |
